This passage reports Ki results from ChEMBL document CHEMBL1127983, “The synthesis and evaluation of peptidyl aspartyl aldehydes as inhibitors of ice” (Bioorg Med Chem Lett, 1994).

This test has as its target T1, Caspase-1 (Homo sapiens, UniProt P29466).
T1 sequence (P29466 whole entry): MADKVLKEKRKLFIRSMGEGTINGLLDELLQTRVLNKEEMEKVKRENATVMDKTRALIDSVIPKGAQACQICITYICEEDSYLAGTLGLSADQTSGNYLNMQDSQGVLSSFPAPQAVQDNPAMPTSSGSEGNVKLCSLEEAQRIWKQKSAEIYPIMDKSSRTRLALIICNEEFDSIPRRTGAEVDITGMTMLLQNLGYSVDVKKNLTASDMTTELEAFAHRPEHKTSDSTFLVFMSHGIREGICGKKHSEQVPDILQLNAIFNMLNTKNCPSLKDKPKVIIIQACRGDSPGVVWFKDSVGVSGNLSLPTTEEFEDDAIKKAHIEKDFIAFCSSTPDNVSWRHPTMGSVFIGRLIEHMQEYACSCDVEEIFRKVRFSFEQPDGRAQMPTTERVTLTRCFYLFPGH
Description: Binding affinity towards IL-1 beta converting enzyme (ICE).

Each structure is given as a SMILES string. Square brackets hold non-standard residues; d marks the D form. Peptide text beside a SMILES is read from it. βAla = NCCC(=O)O

On to `CC(=O)N[C@@H](Cc1ccc(O)cc1)C(=O)N[C@@H](C)C(=O)N[C@H](C=O)CC(=O)O` (Ac-Tyr-Ala-Asp-aldehyde), for which the Ki (usually a measure of affinity in units of concentration, obtained from inhibition or displacement) was 2.1 µM.

As to `CC(=O)N[C@@H](Cc1ccc(O)cc1)C(=O)N[C@H](C(=O)N[C@@H](C)C(=O)N(C)[C@H](C=O)CC(=O)O)C(C)C`, the inhibition constant Ki was greater than 20 µM.

With `CC(=O)N[C@@H](Cc1ccc(O)cc1)C(=O)N[C@H](C(=O)N[C@@H](C)C(=O)N[C@@H]1COC(=O)C1)C(C)C`, the Ki was greater than 20 µM.

For the compound `CC(=O)N[C@@H](Cc1ccc(O)cc1)C(=O)N[C@H](C(=O)N[C@@H](C)C(=O)NCCC(=O)O)C(C)C` (Ac-YVA[βAla]-OH), the inhibition constant Ki was greater than 20 µM.

Compound `CC(=O)N[C@@H](Cc1ccc(O)cc1)C(=O)N[C@H](C(=O)N[C@H](C=O)CC(=O)O)C(C)C` (Ac-Tyr-Val-Asp-aldehyde) returned an inhibition constant Ki of 2.4 µM.

`CC(=O)N[C@@H](Cc1ccc(O)cc1)C(=O)N[C@H](C(=O)N(C)[C@@H](C)C(=O)N[C@H](C=O)CC(=O)O)C(C)C` showed a Ki of 0.059 µM.

As for `CC(=O)N[C@@H](C)C(=O)N[C@H](C=O)CC(=O)O` (Ac-Ala-Asp-aldehyde), the inhibition constant Ki is greater than 20 µM.

With `CC(C)[C@H](NC(=O)CC(Cl)Cl)C(=O)N[C@@H](C)C(=O)N[C@H](C=O)CC(=O)O`, the affinity, expressed as Ki, was 0.028 µM. This lies in the double-digit nanomolar range.

Turning to `CC(=O)N[C@@H](Cc1ccc(O)cc1)C(=O)N[C@H](C=O)CC(=O)O` (Ac-Tyr-Asp-aldehyde), the inhibition constant (Ki) is greater than 20 µM.

With `CC(=O)N(C)[C@@H](Cc1ccc(O)cc1)C(=O)N[C@H](C(=O)N[C@@H](C)C(=O)N[C@H](C=O)CC(=O)O)C(C)C`, the affinity, expressed as Ki, was 0.12 µM.

With `CC(=O)N[C@@H](Cc1ccc(O)cc1)C(=O)N[C@H](C(=O)N[C@@H](C)C(=O)N[C@H](/C=N\NC(N)=O)CC(=O)O)C(C)C`, the Ki is 0.5 µM.

`CC(=O)N[C@@H](Cc1cc(I)c(O)c(I)c1)C(=O)N[C@H](C(=O)N[C@@H](C)C(=O)N[C@H](C=O)CC(=O)O)C(C)C` had an inhibition constant Ki of 0.0075 µM.

In turn, `CC(=O)N[C@H](C(=O)N[C@@H](C)C(=O)N[C@H](C=O)CC(=O)O)C(C)C` (Ac-Val-Ala-Asp-aldehyde) gave a Ki of 1.7 µM.

`CC(=O)N[C@@H](Cc1ccc(O)cc1)C(=O)N[C@H](C(=O)N[C@@H](C)C(=O)N[C@@H]1CNC(=O)C1)C(C)C` registered a Ki greater than 20 µM.

`CC(=O)N[C@@H](Cc1ccc(O)cc1)C(=O)N(C)[C@H](C(=O)N[C@@H](C)C(=O)N[C@H](C=O)CC(=O)O)C(C)C`: the affinity corresponds to a Ki of 50 µM.

Consider `CC(=O)N[C@@H](Cc1ccc(O)cc1)C(=O)N[C@H](C(=O)N[C@@H](C)C(=O)N[C@H](C=O)CC(=O)O)C(C)C`, for which the Ki was determined as 0.006 µM. This Ki lies about 8300-fold lower than the previous one.

As to `CC(=O)N[C@@H](Cc1ccccc1)C(=O)N[C@H](C(=O)N[C@@H](C)C(=O)N[C@H](C=O)CC(=O)O)C(C)C` (Ac-FVAD-aldehyde), affinity was put at a Ki of 0.042 µM.
